“Also recorded” adds a separate entry of the source.
Tested on: glycosyltransferase LbUGT71BX1
Assay: in-vitro enzyme activity testing of recombinant LbUGT71BX1 with flavonoid substrates and UDP-sugar donors (LC-Q-TOF-MS)
Type: biochemical, Laportea bulbifera
Conditions: purified recombinant enzyme, 37° C., 1 hour, Tris-HCl pH 7.5, compared with pMAL-c2X empty control
Description: The in-vitro enzyme activity testing steps are as follows: the 50 μL reaction system contained 1 μL flavonoid substrate (40 mM) (kaempferol or myricetin or gossypetin or quercetagetin), 1 μL UDP-sugar donor (100 mM) (UDP-galactose or UDP-glucose) and […] purified enzyme, and Tris-HCl buffer (pH 7.5) was used to complement the system. With the pMAL-c2X empty crude enzyme catalytic system as a negative control, place the reaction system at 37° C. for 1 hour, and add the same volume of methanol to stop the reaction. Concentrate the above mixture in vacuo and reconstitute it with 100 μL of methanol. Perform filtration using a 0.22 m microporous membrane and transfer the sample to a liquid vial for assay. Use the Agilent 1290 Infinity II-6430 Q-TOF to test the sample. The specific liquid conditions are as follows: (1) Column: ACQUITY UPLC BEH C18 1.7 m 2.1×100 mm; (2) Mobile phase: 0.1% pure water for phase A and chromatographic acetonitrile for phase B; (3) Flow rate: 0.3 mL/min; (4) Column temperature: 40° C.; (5) Injection volume: 1.0 μL; (6) Elution conditions are shown in Table 6. The mass spectrometry conditions are: the ion mode is negative ion, the scan range is 100-3000; the mode is Automated MS/MS; the ion fragment collision energy is 20 V; the source temperature is 350° C.; the nebulizer pressure is set to 30 psi.

Compound	product generated from the flavonoid substrate by LbUGT71BX1 (UDP-galactose as sugar donor)	product generated from the flavonoid substrate by LbUGT71BX1 (UDP-glucose as sugar donor)
O=c1c(O)c(-c2ccc(O)cc2)oc2cc(O)cc(O)c12 [kaempferol]	kaempferol-3-O-galactoside	kaempferol-3-O-glucoside
O=c1c(O)c(-c2ccc(O)c(O)c2)oc2c(O)c(O)cc(O)c12 [gossypetin]		gossypetin-3-O-glucoside
O=c1c(O)c(-c2cc(O)c(O)c(O)c2)oc2cc(O)cc(O)c12 [myricetin]	myricetin-3-O-galactoside	myricetin-3-O-glucoside; also recorded: myricetin-7-O-glucoside
